Measured values as given in US10696615B2, “Prenylated hydroxystilbenes” (The University of Sydney, priority 2011, dated 2020).

Columns and labels:
[1] = system: NCI-H226; experiment: NCI in vitro cancer screen, Non-Small Cell Lung Cancer; assay type: cell-based, human; settings: NCI-H226
[2] = system: ACHN; experiment: NCI in vitro cancer screen, Renal Cancer; assay type: cell-based, human
[3] = system: MDA-MB-468; experiment: NCI in vitro cancer screen, Breast Cancer; assay type: cell-based, human; settings: MDA-MB-468
[4] = system: U251; experiment: NCI in vitro cancer screen, CNS Cancer; assay type: cell-based, human; settings: U251
[5] = system: TK-10; experiment: NCI in vitro cancer screen, Renal Cancer; assay type: cell-based, human; settings: TK-10
[6] = system: SR; experiment: NCI in vitro cancer screen, Leukemia; assay type: cell-based, human
[7] = system: NCI-H460; experiment: NCI in vitro cancer screen, Non-Small Cell Lung Cancer; assay type: cell-based, human; settings: NCI-H460
[8] = system: human tumor cell lines; experiment: NCI in vitro cancer screen, whole panel (summary statements); assay type: cell-based
[9] = system: SNB-19; experiment: NCI in vitro cancer screen, CNS Cancer; assay type: cell-based, human; settings: SNB-19
[10] = system: SW-620; experiment: NCI in vitro cancer screen, Colon Cancer; assay type: cell-based, human; settings: SW-620
[11] = system: SF-295; experiment: NCI in vitro cancer screen, CNS Cancer; assay type: cell-based, human; settings: SF-295
[12] = system: CAKI-1; experiment: NCI in vitro cancer screen, Renal Cancer; assay type: cell-based, human; settings: CAKI-1
[13] = system: MALME-3M; experiment: NCI in vitro cancer screen, Melanoma; assay type: cell-based, human
[14] = system: MDA-MB-435; experiment: NCI in vitro cancer screen, Melanoma; assay type: cell-based, human; settings: MDA-MB-435
[15] = system: CCRF-CEM; experiment: NCI in vitro cancer screen, Leukemia; assay type: cell-based, human
[16] = system: ADR-RES (NCI/ADR-RES); experiment: NCI in vitro cancer screen, Ovarian Cancer; assay type: cell-based, human; settings: Homo sapiens, NCI/ADR-RES
[17] = system: HCT-116; experiment: NCI in vitro cancer screen, Colon Cancer; assay type: cell-based, human; settings: HCT-116
[18] = system: HOP-62; experiment: NCI in vitro cancer screen, Non-Small Cell Lung Cancer; assay type: cell-based, human; settings: HOP-62
[19] = system: HCC-2998; experiment: NCI in vitro cancer screen, Colon Cancer; assay type: cell-based, human; settings: HCC-2998
[20] = system: NCI-H23; experiment: NCI in vitro cancer screen, Non-Small Cell Lung Cancer; assay type: cell-based, human; settings: NCI-H23
[21] = system: UACC-62; experiment: NCI in vitro cancer screen, Melanoma; assay type: cell-based, human; settings: UACC-62
[22] = system: HS 578T; experiment: NCI in vitro cancer screen, Breast Cancer; assay type: cell-based, human; settings: Homo sapiens
[23] = system: DU-145; experiment: NCI in vitro cancer screen, Prostate Cancer; assay type: cell-based, human; settings: DU-145
[24] = system: 786-0; experiment: NCI in vitro cancer screen, Renal Cancer; assay type: cell-based, human; settings: 786-0
[25] = system: SK-MEL-5; experiment: NCI in vitro cancer screen, Melanoma; assay type: cell-based, human; settings: SK-MEL-5
[26] = system: OVCAR-3; experiment: NCI in vitro cancer screen, Ovarian Cancer; assay type: cell-based, human; settings: Homo sapiens, OVCAR-3
[27] = system: IGROV1; experiment: NCI in vitro cancer screen, Ovarian Cancer; assay type: cell-based, human; settings: IGROV1
[28] = system: K-562; experiment: NCI in vitro cancer screen, Leukemia; assay type: cell-based, human; settings: K-562
[29] = system: SK-OV-3; experiment: NCI in vitro cancer screen, Ovarian Cancer; assay type: cell-based, human; settings: SK-OV-3
[30] = Homo sapiens, read-out: LC50 (the source's name)
[31] = read-out: LC50 (the source's name)

Compound COc1cc(/C=C/c2cc(O)cc(OC)c2CC=C(C)C)ccc1O [USYDS1, (E)-2-(3-methyl-2-buten-1-yl)-4′,5-dihydroxy-3,3′-dimethoxystilbene] has a GI50 ([1]; Homo sapiens) of 3.13 µM, an LC50 (50% lethal concentration) ([1]; Homo sapiens) of 45.6 µM and a TGI [1] of 13.3 µM. For the same compound, the TGI [2] was 14.0 µM, the GI50 ([2]; Homo sapiens) was 0.07 µM and the CC50 [2, 30] was 44.6 µM. It also gave a GI50 ([3]; Homo sapiens) of 0.36 µM, a CC50 [3, 30] of 33.2 µM and a TGI [3] of 8.37 µM. It also gave a GI50 ([4]; Homo sapiens, U-251) of 0.37 µM, a CC50 ([4]; Homo sapiens, U-251, read-out: LC50 (the source's name)) of 36 µM and a TGI [4] of 10.9 µM. It also gave a GI50 ([5]; Homo sapiens) of 4.1 µM, an LC50 ([5]; Homo sapiens) of 40.5 µM and a TGI [5] of 15.7 µM. It also gave a TGI [6] of 24.4 µM, a GI50 ([6]; Homo sapiens) of 0.04 µM and a CC50 [6, 30] greater than 100 µM. The GI50 ([7]; Homo sapiens) was 0.23 µM, the CC50 [7, 30] was 42 µM and the TGI [7] was 1.38 µM. The GI50 ([8]; Homo sapiens, range over almost all types of tumor cells) was 0.02 to 5 µM, the “fold more potent than piceatannol” value ([8]; inhibition of proliferation of almost all types of tumor cells) was “approximately 250 fold” and the “order of potency in the inhibition of cancerous cell growth” value ([8]; result in words) was “most potent activity”. It also gave a GI50 ([9]; Homo sapiens) of 0.17 µM, a CC50 [9, 30] of 51.5 µM and a TGI [9] of 19.3 µM. For the same compound, the GI50 ([10]; Homo sapiens) was 0.04 µM, the CC50 [10, 30] was 44.3 µM and the TGI [10] was 15.1 µM. For the same compound, the GI50 ([11]; Homo sapiens) was 0.65 µM, the CC50 [11, 30] was 55.7 µM and the TGI [11] was 16.2 µM. It also gave a TGI [12] of 39.3 µM, a GI50 ([12]; Homo sapiens) of 4.77 µM and a CC50 [12, 30] greater than 100 µM. It also gave a GI50 ([13]; Homo sapiens, Malme-3M) of 3.47 µM, a CC50 ([13]; Homo sapiens, Malme-3M, read-out: LC50 (the source's name)) of 78.3 µM and a TGI ([13]; MALME-3M) of 25.8 µM. For the same compound, the GI50 ([14]; Homo sapiens) was 0.03 µM, the CC50 [14, 30] was 43 µM and the TGI [14] was 13.8 µM. It also gave a TGI [15] of 24.6 µM, a GI50 ([15]; Homo sapiens) of 0.35 µM and a CC50 [15, 30] greater than 100 µM. For the same compound, the GI50 [16] was 0.03 µM, the CC50 [16, 31] was 70.7 µM and the TGI [17] was 11.1 µM. It also gave a GI50 ([17]; Homo sapiens) of 0.3 µM, an LC50 (concentration killing 50% of cells) ([17]; Homo sapiens) of 40.4 µM and a TGI [18] of 16.0 µM. It also gave a GI50 ([18]; Homo sapiens) of 0.44 µM, a CC50 [18, 30] of 42.2 µM and a TGI [19] of 11.5 µM. For the same compound, the GI50 ([19]; Homo sapiens) was 1.07 µM, the CC50 [19, 30] was 35.8 µM and the GI50 ([20]; Homo sapiens) was 0.28 µM. It also gave an LC50 ([20]; Homo sapiens) of 62.5 µM, a TGI [20] of 15.1 µM and a GI50 ([21]; Homo sapiens) of 1.62 µM. For the same compound, the CC50 [21, 30] was 46.6 µM, the TGI [21] was 18.3 µM and the GI50 [22] was 0.02 µM. For the same compound, the CC50 [22, 31] was greater than 100 µM, the TGI [23] was 12.7 µM and the GI50 ([23]; Homo sapiens) was 0.06 µM. For the same compound, the CC50 [23, 30] was 38.6 µM, the TGI [24] was 14.0 µM and the GI50 ([24]; Homo sapiens) was 0.48 µM. It also gave an LC50 (50% net cell kill) ([24]; Homo sapiens) greater than 100 µM, a GI50 ([25]; Homo sapiens) of 0.05 µM and a CC50 [25, 30] of 5.99 µM. It also gave a TGI [25] of 0.75 µM, a GI50 [26] of 0.26 µM and a CC50 [26, 31] of 37.3 µM. It also gave a GI50 ([27]; Homo sapiens, IGROV-1) of 2.65 µM, a CC50 ([27]; Homo sapiens, IGROV-1, read-out: LC50 (the source's name)) greater than 100 µM and a TGI [27] of 27.9 µM. For the same compound, the GI50 ([28]; Homo sapiens, K562) was 0.04 µM, the CC50 ([28]; Homo sapiens, K562, read-out: LC50 (the source's name)) was greater than 100 µM and the TGI [28] was 11.7 µM. For the same compound, the GI50 ([29]; Homo sapiens) was 0.19 µM, the CC50 [29, 30] was 34.7 µM and the TGI [29] was 11.6 µM.
